From patent publication US20220220135A1 (BAR-ILAN UNIVERSITY, priority 2019, published 2022)
Like-named read-outs stand apart in the source and are kept apart here.

Experiments:
[1] = cited from earlier work
NPP1 [2] = molecular target: T1, NPP1 (Homo sapiens, UniProt P22413); assay: Inhibition of human NPP1, 100 μM p-Nph-5′-TMP as substrate (Tables 5, 6); conditions: for % inhibition ± SD at 10 μM, Human NPP1: inactive = no inhibition at 10 μM
T1 sequence (P22413 1-925): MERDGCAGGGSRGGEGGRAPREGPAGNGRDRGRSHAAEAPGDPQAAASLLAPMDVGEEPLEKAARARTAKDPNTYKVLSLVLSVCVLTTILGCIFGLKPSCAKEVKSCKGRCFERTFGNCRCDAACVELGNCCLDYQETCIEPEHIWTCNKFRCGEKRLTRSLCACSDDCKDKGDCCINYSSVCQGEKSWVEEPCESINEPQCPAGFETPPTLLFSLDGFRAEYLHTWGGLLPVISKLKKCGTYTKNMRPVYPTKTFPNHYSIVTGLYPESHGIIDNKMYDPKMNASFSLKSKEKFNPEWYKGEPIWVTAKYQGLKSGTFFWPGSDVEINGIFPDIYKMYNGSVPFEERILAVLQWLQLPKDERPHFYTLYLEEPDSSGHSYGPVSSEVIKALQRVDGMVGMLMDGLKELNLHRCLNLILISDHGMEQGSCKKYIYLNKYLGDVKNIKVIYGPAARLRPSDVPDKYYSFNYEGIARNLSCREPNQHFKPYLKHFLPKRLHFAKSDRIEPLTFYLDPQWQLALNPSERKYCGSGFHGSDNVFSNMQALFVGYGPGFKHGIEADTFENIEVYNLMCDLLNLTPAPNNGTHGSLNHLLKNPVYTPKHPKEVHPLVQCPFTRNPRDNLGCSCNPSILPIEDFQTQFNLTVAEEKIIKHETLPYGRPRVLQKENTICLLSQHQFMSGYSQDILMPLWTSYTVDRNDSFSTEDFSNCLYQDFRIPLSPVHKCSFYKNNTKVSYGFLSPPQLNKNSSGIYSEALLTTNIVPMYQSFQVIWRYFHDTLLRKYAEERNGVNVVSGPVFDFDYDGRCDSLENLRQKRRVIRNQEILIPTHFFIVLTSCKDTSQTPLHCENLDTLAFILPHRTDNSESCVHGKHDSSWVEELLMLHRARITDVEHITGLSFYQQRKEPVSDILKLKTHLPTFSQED

NPP1 [3] = molecular target: T1, NPP1; assay: Inhibition of human NPP1, 100 μM ATP as substrate (FIG. 9, Table 6); assay type: biochemical; conditions: 100 μM ATP as a substrate; read-out: Ki, human NPP1
Protocol: Each experiment was performed in triplicates;

Human CD73 = molecular target: T2, Human CD73 (Homo sapiens, UniProt P21589); assay: Inhibition of human CD73, 5 μM [2,8-3H]AMP as substrate; assay type: biochemical; conditions: 5 μM [2,8-3H]AMP as a substrate; for Ki: read-out: Ki ± SD (μM), Human CD73; for % inhibition ± SD at 10 μM, Human CD73: inactive = no inhibition at 10 μM
T2 sequence (P21589 27-549): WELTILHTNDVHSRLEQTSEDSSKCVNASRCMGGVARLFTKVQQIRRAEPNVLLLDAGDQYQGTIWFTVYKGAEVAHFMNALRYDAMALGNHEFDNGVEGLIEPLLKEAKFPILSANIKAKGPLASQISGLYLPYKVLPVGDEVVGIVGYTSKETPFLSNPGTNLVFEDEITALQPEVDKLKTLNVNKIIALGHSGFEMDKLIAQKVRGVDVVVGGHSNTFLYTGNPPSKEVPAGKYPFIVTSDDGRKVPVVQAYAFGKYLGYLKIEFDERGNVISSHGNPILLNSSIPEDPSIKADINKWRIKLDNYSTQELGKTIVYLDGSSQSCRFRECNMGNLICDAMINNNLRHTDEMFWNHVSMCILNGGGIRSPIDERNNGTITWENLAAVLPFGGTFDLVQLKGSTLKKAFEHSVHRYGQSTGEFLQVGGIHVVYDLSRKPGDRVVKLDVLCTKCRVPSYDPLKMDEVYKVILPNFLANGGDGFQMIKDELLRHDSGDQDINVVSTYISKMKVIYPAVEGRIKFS

human NPP3 = molecular target: T3, human NPP3 (Homo sapiens, UniProt O14638); assay: Inhibition of human NPP3, 100 μM p-Nph-5′-TMP as substrate (Tables 5, 7); assay type: biochemical; conditions: 10 μM; 100 μM p-Nph-5′-TMP as a substrate; inactive = no inhibition at 10 μM
T3 sequence (O14638 1-875): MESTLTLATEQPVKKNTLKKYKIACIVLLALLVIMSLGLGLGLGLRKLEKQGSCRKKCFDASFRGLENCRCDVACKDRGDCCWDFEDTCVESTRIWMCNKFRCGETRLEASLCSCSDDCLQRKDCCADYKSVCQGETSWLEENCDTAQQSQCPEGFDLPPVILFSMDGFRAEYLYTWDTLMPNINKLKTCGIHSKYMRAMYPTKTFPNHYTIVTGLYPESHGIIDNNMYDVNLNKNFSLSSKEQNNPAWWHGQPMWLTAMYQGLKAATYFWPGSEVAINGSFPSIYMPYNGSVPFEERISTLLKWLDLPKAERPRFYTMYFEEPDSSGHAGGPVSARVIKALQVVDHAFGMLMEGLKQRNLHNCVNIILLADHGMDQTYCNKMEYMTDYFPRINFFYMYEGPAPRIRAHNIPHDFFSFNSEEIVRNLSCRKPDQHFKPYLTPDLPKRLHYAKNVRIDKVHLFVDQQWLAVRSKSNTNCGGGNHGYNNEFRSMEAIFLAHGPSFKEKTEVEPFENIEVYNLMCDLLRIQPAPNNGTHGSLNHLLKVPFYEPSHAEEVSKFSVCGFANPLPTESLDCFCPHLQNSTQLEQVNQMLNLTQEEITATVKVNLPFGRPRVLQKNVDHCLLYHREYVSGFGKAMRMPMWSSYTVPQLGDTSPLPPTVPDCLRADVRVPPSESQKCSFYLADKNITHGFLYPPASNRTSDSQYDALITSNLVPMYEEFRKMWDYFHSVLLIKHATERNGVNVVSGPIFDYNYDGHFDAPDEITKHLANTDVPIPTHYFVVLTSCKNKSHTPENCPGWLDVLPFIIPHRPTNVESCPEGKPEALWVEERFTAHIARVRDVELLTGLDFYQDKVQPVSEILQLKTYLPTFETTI

Human CD39 (NTPDase1) = molecular target: T4, Human CD39 (NTPDase1) (Homo sapiens, UniProt P49961); assay: Inhibition of human CD39 (NTPDase1), 100 μM ADP as substrate; assay type: biochemical; conditions: 100 μM ADP as a substrate; for Ki: read-out: Ki ± SD (μM), Human CD39 (NTPDase1)
T4 sequence (P49961 1-510): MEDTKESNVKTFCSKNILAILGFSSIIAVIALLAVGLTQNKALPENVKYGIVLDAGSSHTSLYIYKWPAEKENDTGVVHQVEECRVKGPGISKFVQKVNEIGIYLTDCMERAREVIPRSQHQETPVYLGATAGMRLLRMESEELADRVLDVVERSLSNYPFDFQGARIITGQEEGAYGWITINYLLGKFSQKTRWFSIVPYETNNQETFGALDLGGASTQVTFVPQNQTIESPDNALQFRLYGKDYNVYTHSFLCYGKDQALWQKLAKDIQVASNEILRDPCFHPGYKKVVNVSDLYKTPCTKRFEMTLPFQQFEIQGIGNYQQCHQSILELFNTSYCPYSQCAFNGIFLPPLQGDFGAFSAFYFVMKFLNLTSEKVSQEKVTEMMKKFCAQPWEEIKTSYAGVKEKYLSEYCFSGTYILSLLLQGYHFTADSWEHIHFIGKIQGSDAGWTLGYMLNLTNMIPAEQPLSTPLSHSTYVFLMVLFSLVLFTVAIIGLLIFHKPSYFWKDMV

[4] = Chemical stability under acidic and basic conditions by 31P-NMR
Text: To evaluate the chemical stability of uridine-5′-Pα,α-dithiophosphate analogues, we measured by 31P-NMR the time-dependent percentage of the analogues remaining under basic and acidic conditions, and due to air-oxidation.

[5] = read-out: Ki ± SD (μM), Human NPP1, 100 μM p-Nph-5′-TMP as a substrate
[6] = 100 μM p-Nph-5′-TMP as a substrate
[7] = 10 μM, inactive = no inhibition at 10 μM

| SMILES | Ki (NPP1 [2]; [5]) [µM] | Ki (Human CD73) [µM] | % inhibition ± SD at 10 μM, Human NPP3 (human NPP3) | % inhibition ± SD at 10 μM, Human NPP1 (NPP1 [2]; [6]) | % inhibition ± SD at 10 μM, Human CD39 (NTPDase1) (Human CD39 (NTPDase1); [7]) | % inhibition ± SD at 10 μM, Human CD73 (Human CD73) | Ki (Human CD39 (NTPDase1)) [µM] | further results |
| --- | --- | --- | --- | --- | --- | --- | --- | --- |
| Nc1nc(SCc2ccccc2)nc2c1ncn2[C@@H]1O[C@H](COP(O)(=S)OP(=O)(O)OP(=O)(O)O)[C@@H](O)[C@H]1O (stereo partly drawn) [2-Benzylthio-ATP-α-S] |  |  |  |  |  |  |  | Time for decomposition of 5% ([1]; Acidic pH, reference 34): 0.8 days; Time for decomposition of 10% ([1]; Acidic pH, reference 34): 1.7 days |
| CSc1nc(N)c2ncn(C3OC(COP(O)(=S)OP(=O)(O)O)C(O)C3O)c2n1 (stereo not drawn) [2-Methylthio-ADP-α-S] |  |  |  |  |  |  |  | Time for decomposition of 5% ([1]; Basic pH, reference 24): <0.021 days; Time for decomposition of 10% ([1]; Basic pH, reference 24): <0.021 days |
| Nc1ncnc2c1ncn2COCCOP(=O)(O)CP(=O)(O)O [Analogue 22] | 16.3 ± 2.5 |  |  |  |  |  |  | Ki (NPP1 [3]): 9.6 ± 2.84 µM |
| Nc1ncnc2c1ncn2[C@@H]1O[C@H](COP(=O)(O)CS(=O)(=O)O)[C@@H](O)[C@H]1O [Compound 20] |  | 49.5 ± 0.7 | inactived | inactived | inactived |  |  |  |
| Nc1ncnc2c1ncn2[C@@H]1O[C@H](COS(=O)(=O)CS(=O)(=O)O)[C@@H](O)[C@H]1O [Compound 21] | > 10 | > 10 | inactived | 12 ± 1% | inactived | 23 ± 3% |  |  |
| Nc1ncnc2c1ncn2COCCOP(=O)(O)CP(=O)(O)O [Compound 22] |  | 12.6 ± 1.4 | inactived |  | 22 ± 2% |  | > 10 |  |
| Nc1ncnc2c1ncn2COCCOP(=O)(O)C(Cl)(Cl)P(=O)(O)O [Compound 23] | > 10 | > 10 | inactived | 4 ± 1% | 24 ± 3% | 17 ± 4% | > 10 |  |
| Nc1ncnc2c1ncn2COCCOP(=O)(O)O [Compound 24] |  | > 10 | inactived | inactived | inactived | 5 ± 3% |  |  |
| Nc1ncnc2c1ncn2COCCO[PH](=O)O [Compound 25] |  |  | inactived |  |  | inactived | > 10 | Ki (NPP1 [2]): > 10 µM; inhibition at 10 µM (NPP1 [2]; read-out: % inhibition ± SD at 10 μM, Human NPP1): 6%; inhibition at 10 µM (Human CD39 (NTPDase1); 10 μM, inactive = no inhibition at 10 μM, read-out: % inhibition ± SD at 10 μM, Human CD39 (NTPDase1)): 33% |
| Nc1ncnc2c1ncn2COCCOP(O)(=S)OCCOCn1cnc2c(N)ncnc21 [Compound 26] | > 10 |  | inactived | 13 ± 1% | 15 ± 2% | inactived | > 10 |  |
| O=c1ccn([C@@H]2O[C@H](COP(=O)(O)OP(=O)(O)O)[C@@H](O)[C@H]2O)c(=O)[nH]1 [UDP] |  |  |  |  |  |  |  | decomposition ([4]; pD 2.1, after 28 days): 7% |
| O=c1ccn([C@@H]2O[C@H](COP(=O)(O)OP(=O)(O)OP(=O)(O)O)[C@@H](O)[C@H]2O)c(=O)[nH]1 [UTP] |  |  |  |  |  |  |  | Time for decomposition of 5% ([4]; Acidic pH): 7.5 days; Time for decomposition of 10% ([4]; Acidic pH): 19 days; Time for decomposition of 5% ([4]; Basic pH): 1 days; Time for decomposition of 10% ([4]; Basic pH): 8.5 days; decomposition ([4]; acidic, pD 2.1, after 20 days): 11%; decomposition ([4]; basic conditions (pD 12.1), after 20 days): 10% |
